Read-outs that look alike come from different tables or passages of the source. Each block holds one molecule with its values, some of them ahead of it.
Experiments:
[1] = tested on: nitric oxide (NO) production in RAW 264.7 cells; test: Nitric oxide inhibitory assay (Griess) in LPS-induced RAW264.7 cells; assay type: cell-based, Murine; conditions: Mus musculus, LPS (100 ng/mL)-induced RAW 264.7 cells, read-out: NO Inhibition IC50
Method: (§1) Murine RAW264.7 macrophages were cultured at 37 °C under 5% CO2 using a culture medium that was a mixture of DMEM, 10% FBS, and 1% penicillin [29]. When the cells reached […] full growth, the seeded cells were subjected to NO measurement and iNOS protein assay.
The NO inhibition assay was performed as described in [29], with slight modification. RAW264.7 cells were seeded in 96 wells for 24 h. The next day, they were divided into the following groups: medium, medium with LPS (100 ng/mL) added, medium with the positive control (quercetin) and LPS added, and medium with samples and LPS (100 ng/mL) added. The reaction time between the medium and the sample was 1 h before adding LPS and waiting 20 h after adding LPS. Finally, half of the supernatant was transferred into a new 96-well plate and mixed in a 1:1 ratio with Griess reagent. After 15 min in the dark, the reaction was measured at 550 nm.

[2] = tested on: RAW 264.7 cells; test: MTT assay, cell viability; assay type: cell-based, Murine
Method: as §1
The MTT assay was performed according to the reference method, with slight modifications. Cells from the 96-well plates prepared for the NO inhibition assay were added to MTT stock solution (5 mg/mL) and diluted 20-fold with medium. After 2 h, all liquid was removed, and DMSO was added. The absorbance was measured at 570 nm.

[3] = target: T1, tyrosinase (Agaricus bisporus, UniProt C7FF04); test: Tyrosinase inhibitory activity assay; assay type: biochemical
T1 construct: purchased Sigma-Aldrich

[4] = Ferric reducing antioxidant power (FRAP); assay type: biochemical
Method: The FRAP assay was performed using a previously described procedure. This experiment needs to be performed in the dark. First, the reaction reagent was obtained by mixing acetate buffer (pH 3.6), ferric chloride solution (20 mM), and TPTZ solution (10 mM TPTZ in 40 mM HCl) in a ratio of 10:1:1, respectively. Next, 900 μL of the reaction reagent was mixed with 100 μL of the sample or Trolox in an Eppendorf tube, and the absorbance was measured at 593 nm after 40 min in a dry bath at 37 °C. The FRAP of the extracts was determined by a linear standard calibration curve from 0 to 100 mM Trolox with an R^2 value of 0.9999.

[5] = target: T2, α-glucosidase (Saccharomyces cerevisiae, UniProt P53341); test: biochemical; assay type: biochemical
T2 construct: purchased Sigma-Aldrich

[6] = DPPH radical scavenging activity; assay type: biochemical; conditions: for EC50: isolated components, read-out: SC50 DPPH
Method: This assay was performed using a previously reported procedure. This experiment needs to be performed in the dark. Briefly, 100 µL of varying concentrations of extracts or compounds were mixed with 100 µL of 200 µM DPPH solution and incubated at room temperature for 30 min, and the absorbance was measured at 520 nm. DPPH radical scavenging activity was calculated using the following equation.
DPPH scavenging activity (%) = (A0 − A1)/A0 × 100, where A1 is the absorbance of the test sample, and A0 is the absorbance of the control (untreated group).

[7] = ABTS radical scavenging activity; assay type: biochemical; conditions: for EC50: isolated components, read-out: SC50 ABTS
Method: This assay was performed using a previously reported procedure. This experiment needs to be performed in the dark. First, the reaction reagent was prepared by mixing 28 mM ABTS solution and 9.6 mM potassium persulfate solution (v/v, 1/1) and left in the dark at 4 °C for 16 h before use. The reaction reagent was diluted with ethanol until the absorbance was 0.70 ± 0.02 at 740 nm. Next, 10 μL of the extract or compound was mixed with 190 μL of the reaction reagent and incubated at room temperature for 5 min before measuring the absorbance at 740 nm. The formula of scavenging activity was calculated as follows.
ABTS radical scavenging activity (%) = (A0 − A1)/A0 × 100, where A0 and A1 are the absorbance of the control (untreated group) and test sample, respectively.

[8] = Superoxide radical scavenging activity; assay type: biochemical; conditions: isolated components; read-out: SC50 Superoxide
Method: This assay was performed using a previously reported procedure. This experiment needs to be performed in the dark. Initially, NBT (300 μM), NADH (468 μM), and PMS (120 μM) were prepared using Tris-HCl buffer (16 mM, pH 8.0). Next, 50 μL of NBT and PMS and 10 μL of the extract or compound were mixed; subsequently, 50 μL of NADH solution was added and incubated at room temperature for 5 min before measuring the absorbance at 560 nm. The equation for the scavenging activity is as follows.
Superoxide radical scavenging activity = (A0 − A1)/A0 × 100, where A0 and A1 are the absorbance of the control (untreated group) and test sample, respectively.

[9] = tested on: inducible nitric oxide synthase (iNOS); test: Western blot analysis of iNOS expression; assay type: cell-based, Murine; conditions: LPS (100 ng/mL)-induced cells, 24 h; compared to the LPS-induced group; Figure 4
Method: as §1
Western blot analysis was performed according to the reference method, with slight modifications. Cells were cotreated with varying concentrations of samples and LPS (100 ng/mL) for 24 h. After washing the cells with ice-cold PBS, the proteins were collected with cell lysis buffer and stored at −20 °C for subsequent experiments. The quantified proteins were separated using a 10% SDS-polyacrylamide gel. Next, the proteins were transferred to polyvinylidene fluoride (PVDF) membranes by electrophoresis. The transferred PVDF membranes were immersed in 2% BSA blocking buffer for 2 h and washed two to three times with TBST. Proteins were visualized by specific primary antibodies and soaked overnight. The next day, PVDF membranes were subjected to the TBST wash step again to remove residual primary antibodies and soaked with secondary antibodies for 2 h. Finally, after repeating the TBST wash two to three times, immunoreactivity was detected with ECL reagents, and samples were exposed with a cold light meter and quantified with Image J.

[10] = isolated components, mM Trolox equivalents per gram
[11] = isolated compounds, read-out: IC50 α-Glucosidase
[12] = solvent extracts, 50% free radical scavenging

T1 sequence (C7FF04 1-392 limits assumed): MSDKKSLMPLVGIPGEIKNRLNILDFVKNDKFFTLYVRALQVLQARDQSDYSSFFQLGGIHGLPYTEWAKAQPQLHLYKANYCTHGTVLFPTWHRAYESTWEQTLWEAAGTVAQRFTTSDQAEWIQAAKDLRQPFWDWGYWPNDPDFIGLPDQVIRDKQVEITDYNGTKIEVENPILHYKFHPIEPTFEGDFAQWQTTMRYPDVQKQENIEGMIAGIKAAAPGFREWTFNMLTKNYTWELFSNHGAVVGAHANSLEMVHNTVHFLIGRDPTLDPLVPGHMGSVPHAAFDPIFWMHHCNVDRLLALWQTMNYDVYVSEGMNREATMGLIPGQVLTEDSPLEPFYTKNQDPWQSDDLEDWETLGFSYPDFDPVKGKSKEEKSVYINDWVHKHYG
T2 sequence (P53341 whole entry): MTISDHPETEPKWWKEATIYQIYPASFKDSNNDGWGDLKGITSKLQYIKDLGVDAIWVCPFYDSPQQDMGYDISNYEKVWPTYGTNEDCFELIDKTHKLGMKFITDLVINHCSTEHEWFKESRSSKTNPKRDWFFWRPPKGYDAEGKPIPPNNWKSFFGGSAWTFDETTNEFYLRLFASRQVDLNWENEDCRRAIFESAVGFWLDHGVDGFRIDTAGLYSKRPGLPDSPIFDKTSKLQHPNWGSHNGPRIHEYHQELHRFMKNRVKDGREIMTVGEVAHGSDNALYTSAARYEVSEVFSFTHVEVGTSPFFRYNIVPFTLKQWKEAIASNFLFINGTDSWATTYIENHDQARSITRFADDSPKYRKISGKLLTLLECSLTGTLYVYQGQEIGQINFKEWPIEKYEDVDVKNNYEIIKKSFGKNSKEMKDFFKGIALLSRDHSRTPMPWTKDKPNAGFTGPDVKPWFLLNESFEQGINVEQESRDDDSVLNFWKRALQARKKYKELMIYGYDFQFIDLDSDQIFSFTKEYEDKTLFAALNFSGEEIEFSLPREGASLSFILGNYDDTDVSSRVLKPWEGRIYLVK

IC50 ([1]; isolated components): 13.2 ± 2 µM
IC50 ([1]; solvent extracts): 3.98 ± 0.28 µg/mL
SMILES: O=c1c(O)c(-c2ccc(O)c(O)c2)oc2cc(O)cc(O)c12 [Quercetin, quercetin, reference compound]
cell viability (MTT) ([2]; isolated compounds, Figure 3, except for the high dose of 100 μM): slight cytotoxicity at higher doses
cell viability (MTT) ([2]; solvent extracts, Figure 1): slight cytotoxicity at higher doses

IC50 ([3]; isolated compounds, read-out: IC50 Tyrosinase): > 400 µM
IC50 [5, 11]: 492 ± 12.8 µM
EC50 [6]: > 200 µM
IC50 ([1]; isolated components): 36.8 ± 2.26 µM
EC50 [7]: > 200 µM
EC50 [8]: > 200 µM
SMILES: O=c1ccc2ccc(O)cc2o1 [Umbelliferone (4), umbelliferone]
TE FRAP [4, 10]: 145.23 ± 35.46 mM/g

SMILES: Oc1cc(O)cc(/C=C/c2ccc(O)cc2O)c1 [Oxyresveratrol (3), oxyresveratrol]
IC50 [3]: 1.89 ± 0.59 µM
TE FRAP [4, 10]: 2402.22 ± 32.91 mM/g
TE FRAP ([4]; isolated components, mM Trolox equivalents per gram, listed as 3): 2402.22 ± 32.91 mM/g
IC50 [5]: 8.35 ± 0.46 µM
EC50 [6]: 44.4 ± 12.5 µM
IC50 ([1]; isolated components): 25.4 ± 3.47 µM
EC50 [7]: 9.5 ± 2.08 µM
EC50 [8]: > 200 µM

SMILES: CC(C)=CCc1c(O)ccc(C(=O)[C@@H]2[C@@H](c3c(O)cc(O)c4c(=O)c(CC=C(C)C)c(-c5ccc(O)cc5O)oc34)C=C(C)C[C@H]2c2ccc(O)cc2O)c1O [Kuwanon H (6), kuwanon H]
IC50 [3]: 218 ± 41 µM
TE FRAP [4, 10]: 1750.96 ± 36.30 mM/g
IC50 [5, 11]: 4.06 ± 0.12 µM
α-glucosidase inhibition, times more effective than acarbose ([5]; versus positive control acarbose): approximately 100 times
α-glucosidase inhibition, times more potent than other compounds ([5]; versus the other isolated compounds): 2–20 times
EC50 [6]: > 200 µM
IC50 ([1]; isolated components): 40.5 ± 4.38 µM
EC50 [7]: 8.68 ± 0.93 µM
EC50 [8]: > 200 µM

EC50 [6]: 89.8 ± 7.03 µM
EC50 [7]: 116 ± 25.1 µM
SMILES: Cc1cc(C(C)(C)C)c(O)c(C(C)(C)C)c1 [BHT, butylated hydroxytoluene, reference compound]
TE FRAP [4, 10]: 4385.56 ± 78.88 mM/g
TE FRAP ([4]; solvent extracts, mM Trolox equivalents per gram of extract): 4385.56 ± 45.54 mM/g
SC50 DPPH [6, 12]: 19.75 ± 1.79 µg/mL
SC50 ABTS [7, 12]: 25.87 ± 5.83 µg/mL

SMILES: CC(C)=CCc1c(-c2ccc(O)cc2O)oc2c3c(cc(O)c2c1=O)OC(C)(C)C=C3 [Morusin (2), morusin]
IC50 [3]: > 400 µM
TE FRAP [4, 10]: 583.43 ± 25.79 mM/g
IC50 [5, 11]: 15.7 ± 2.15 µM
EC50 [6]: > 200 µM
IC50 ([1]; isolated components): 9.87 ± 0.59 µM
EC50 [7]: 44.2 ± 8.07 µM
EC50 [8]: > 200 µM
iNOS expression (Western blot) [9]: significantly reducing the expression of iNOS

SMILES: O=c1c(O)c(-c2ccc(O)cc2O)oc2cc(O)cc(O)c12 [Morin (1), morin]
IC50 [3]: 199 ± 84.4 µM
TE FRAP [4, 10]: 2963.28 ± 63.65 mM/g
TE FRAP ([4]; isolated components, mM Trolox equivalents per gram, listed as 1): 2963.28 ± 63.65 mM/g
IC50 [5]: 90.1 ± 10.2 µM
EC50 [6]: 17.5 ± 3.43 µM
IC50 ([1]; isolated components): 43.3 ± 4.61 µM
EC50 [7]: 12.7 ± 5.98 µM
EC50 [8]: 54.5 ± 19 µM

SMILES: CC(C)=CCc1c(-c2ccc(O)cc2O)oc2c([C@H]3C=C(C)C[C@@H](c4ccc(O)cc4O)[C@@H]3C(=O)c3ccc(O)cc3O)c(O)cc(O)c2c1=O [Kuwanon G (5), kuwanon G]
IC50 [3]: 100 ± 9.62 µM
TE FRAP [4, 10]: 3549.22 ± 160.65 mM/g
TE FRAP ([4]; isolated components, mM Trolox equivalents per gram, listed as 5): 3549.22 ± 160.65 mM/g
IC50 [5]: 7 ± 0.31 µM
EC50 [6]: > 200 µM
IC50 ([1]; isolated components): 17.8 ± 0.5 µM
EC50 [7]: 9.28 ± 1.02 µM
EC50 [8]: 188 ± 19.1 µM
